Experimental findings from patent US9399145B2, “Nanoscale neuromodulating platform for retina neuron activation apparatus and method” (The Board of Trustees of the University of Illinois, priority 2005, dated 2016) are described below.

For assay [1], the target named is T1, α1β2γ2 GABAARs (rat α1, rat β2 and human γ2S) (UniProt P18507+P62813+P63138).
T1 construct: expressed in transfected cells; host or cells: Xenopus laevis oocytes
The assay can be described thus: Two-electrode voltage clamp of α1β2γ2 GABAAR-expressing Xenopus oocytes. The class given is cell-based. The note with it: for potentiation of the GABA response: co-applied 3 μM GABA, MPC088 1 μM, MPD021 10 or 100 μM, MPC100 10 μM; for electrophysiological activity of propofol analogs (FIG. 59), words: Xenopus oocyte expression system. From the text: Purple and gray bars indicate periods of presentation of UV light (purple) and high-intensity visible light (High-Vis) (gray), respectively. […] These amplitude determination conditions are denoted by numbers beneath the waveform in FIG. 35d.
In each of the MPC088 experiments, the cis-dominant form was generated by UV light during static bathing. […] Numbers beneath the waveform in FIG. 2(c) denote amplitude determination conditions for that experiment.
(§1) Oocytes expressing α1β2γ2 receptors (rat α1, rat β2 and human γ2S) were prepared and studied by two-electrode voltage-clamp recording^58 (holding potential: −70 mV; amplifier: GeneClamp500B; Axon Instruments, Foster City, Calif.). Unless otherwise indicated, oocytes were superfused with Ringer solution (physiological saline) at a rate of ˜1 mL/min. The experiments of FIGS. 35d-e, 36c-e and 47 involved periods of static bathing, i.e., halted superfusion. The γ2(A79C) subunit was prepared by site-directed mutagenesis. Oocyte electrophysiological experiments were carried out in room light. A UV light-emitting diode (peak wavelength: 365 nm; Hamamatsu Photonics, Japan) and a microscope illuminator (white light; Schott Fostec, Auburn, N.Y.) provided UV and visible stimulating light. As measured at the position of the oocyte, the intensity of the UV light at 365 nm was 220 μW/mm^2. At 440 nm, the nominal strength of the visible (white) light (referred to as high-intensity visible light) was 28 μW/mm^2, and that of the ambient room illumination was 0.045 μW/mm^2. In all experiments, low-intensity visible light from the microscope illuminator (3 μW/mm^2 at 440 nm) was present at all times except those involving high-intensity visible illumination. Electrophysiological data were obtained using Clampex 8.2 (Axon Instruments), analyzed using Clampfit 10.0 (Axon Instruments) and OriginPro7.5 (OriginLab, Northampton, Mass.). All statistical analysis employed a two-sample t-test.
On the technique in general: Two-electrode voltage clamp is typically applied to oocytes expressing channels or transporters.

For assay [2], the target named is T2, α1β2γ2(A79C) GABAARs (γ-79C) (UniProt P18507+P62813+P63138, A118C).
T2 construct: expressed in transfected cells; host or cells: Xenopus laevis oocytes
The assay can be described thus: Tethering to γ-79C GABAAR-expressing oocytes, voltage clamp. The class given is cell-based, rat, human. The method, then: as §1, with “μW/mm^2.” for “μW/mm^2. In all experiments, low-intensity visible light from the microscope illuminator (3 μW/mm^2 at 440 nm) was present at all times except those involving high-intensity visible illumination. Electrophysiological data were obtained using Clampex 8.2 (Axon Instruments), analyzed using Clampfit 10.0 (Axon Instruments) and OriginPro7.5 (OriginLab, Northampton, Mass.). All statistical analysis employed a two-sample t-test.”

The test system of assay [3] is GABAA receptors. The experiment in a line: Two-electrode voltage clamp of GABAA-expressing Xenopus oocytes. The class given is cell-based. The conditions noted are these: for Hill coefficient n: Hill fit of normalized peak amplitudes; for EC50: Hill fit of peak amplitudes normalized to saturating muscimol response. The source says: (§2) Muscimol-biotin was synthesized wherein biotinamidoeaproic acid N-hydroxysuccinimide ester was reacted with muscimol in N-methylpyrrolidinone in the presence of diisopropylethylamine. The product was purified to homogeneity by reversed-phase HPLC. Peaks were detected by absorbance at 210 nm (FIG. 5), collected, and lyophilized to afford muscimol-biotin. The muscimol-biotin product was judged to be 97% pure by ^IH NMR spectroscopy, with no detectable contamination of the HPLC-purified product peak by muscimol (limit of detection: ca. 1%). Muscimol-biotin was dissolved in DMSO, stored at 3° C., and diluted to desired concentrations in frog Ringer before testing on the oocyte. Electrophysiology procedures used for Xenopus oocyte preparation, including GABAc expression, followed those described previously (Qian et al., 1998). Membrane currents were recorded from GABAc-expressing oocytes by 2-electrode voltage clamp apparatus. FIGS. 6-7 show results obtained for muscimol-biotin in GABAc and GABAA expressing oocytes.
(§3) FIGS. 6 and 7 show the effects of muscimol-biotin on GABAc- and GABAA expressing Xenopus oocytes. […] Right (FIG. 7): GABAA receptors. […] (B) Responses of another oocyte to 2.5 μM muscimol-biotin alone, and to co-application of 2.5 μM muscimol-biotin and 100 μM bicuculline. (C) Family of responses to varying concentrations of muscimol-biotin and to a single, saturating concentration of muscimol (200 μM thick trace) recorded from a single oocyte. (D) Normalized peak amplitudes (mean±SEM) of responses recorded from GABAA-expressing oocytes upon the application of muscimol (open circles) and muscimol-biotin (filled circles) (n=9).

In assay [4] the target is T3, GABAc receptors (Homo sapiens, UniProt P24046).
T3 construct: expressed in transfected cells; host or cells: Xenopus oocytes
The experiment in a line: Two-electrode voltage clamp of GABAc-expressing Xenopus oocytes. The class given is cell-based. The conditions noted are these: for Hill coefficient n: Hill fit of normalized peak amplitudes; for EC50: Hill fit of peak amplitudes normalized to saturating muscimol response.
Description: as §2, §3

Assay [5] relates to GABAARs of retinal ganglion cells. The experiment in a line: Whole-cell patch clamp of isolated retinal ganglion cells. The class given is cell-based, rat. The note with it: co-applied 100 μM PTX. The method, then: To test whether native neuronal GABAARs respond to MPC088, retinal ganglion cells (RGCs), a cell type known to abundantly express GABAARs (Ishida et al. (1988); Fischer et al. (1998); Wässle et al. (1998); Rotolo et al. (2003)), were examined. […] The cis-dominant preparation was obtained by pre-treating trans-dominant MPC088 with UV light for 5 min.
Inset: Aggregate data for direct activation by MPC088.
Experiments were conducted on enzymatically dissociated ganglion cells obtained from adult Sprague-Dawley rats (male and female, 6-16 weeks of age) (Charles River Laboratories, Wilmington, Mass.). Procedures for euthanasia, isolation of the retina, and the dissociation of retinal cells were as described previously (Ramsey et al. (2007) except that the period of retinal cell dissociation was shortened from 40 min to 20 min. Isolated ganglion cells were identified on the basis of their morphological appearance and the presence of a large voltage-gated sodium current. Whole-cell patch-clamp techniques similar to those described (Ramsey et al. (2007)) were used to record membrane current responses to test agents. The patch pipette with a resistance of 8-12 MΩ was pulled in two stages using a micro-electrode puller (Model PP830, Narishige Group, Tokyo, Japan). The pipette was filled with an intracellular solution containing 95 mM CsCH3SO3, 20 mM TEA-Cl, 10 mM glutamic acid, 1 mM BAPTA, 10 mM HEPES, 8 mM phosphocreatine di(tris), 1 mM MgATP and 0.2 mM Na2GTP; pH adjusted to 7.2 with CsOH. Cells were clamped at 0 mV (Axopatch 200B amplifier; Axon Instruments), and experimental runs were controlled by pCLAMP system software (Axon Instruments). Electrophysiological data were obtained in response to test compounds dissolved in physiological saline (Ringer solution) that consisted of 135 mM NaCl, 5 mM KCl, 2 mM CaCl2, 2 mM MgCl2, 10 mM glucose, and 5 mM HEPES, pH 7.4. Supplementation of aqueous test solutions with MPC088 was carried out by adding an aliquot of a stock solution containing the compound dissolved in dimethyl sulfoxide (DMSO). In all experiments, the amount of carrier DMSO present in the applied test solution was <1% (v/v). Test solutions were delivered from separate reservoirs by a multi-channel perfusion system. The same UV-LED used in the oocyte experiments was used for UV illumination of MPC088-supplemented test solutions. For preparation of cis-dominant MPC088, the test solution of initially trans-dominant compound underwent a 5-min UV illumination prior to its placement in the perfusion reservoir. All preparative procedures were performed in the dark, and the reservoirs and perfusion lines were light-protected with aluminum foil. As in the oocyte experiments, data were analyzed with Clampfit and plotted with Origin. Unless otherwise stated, numerical data from replicate experiments are presented as mean±SD, and all statistical analyses of data obtained from oocytes and from retinal ganglion cells employed a two-sample t-test.

T3 sequence (P24046 22-479): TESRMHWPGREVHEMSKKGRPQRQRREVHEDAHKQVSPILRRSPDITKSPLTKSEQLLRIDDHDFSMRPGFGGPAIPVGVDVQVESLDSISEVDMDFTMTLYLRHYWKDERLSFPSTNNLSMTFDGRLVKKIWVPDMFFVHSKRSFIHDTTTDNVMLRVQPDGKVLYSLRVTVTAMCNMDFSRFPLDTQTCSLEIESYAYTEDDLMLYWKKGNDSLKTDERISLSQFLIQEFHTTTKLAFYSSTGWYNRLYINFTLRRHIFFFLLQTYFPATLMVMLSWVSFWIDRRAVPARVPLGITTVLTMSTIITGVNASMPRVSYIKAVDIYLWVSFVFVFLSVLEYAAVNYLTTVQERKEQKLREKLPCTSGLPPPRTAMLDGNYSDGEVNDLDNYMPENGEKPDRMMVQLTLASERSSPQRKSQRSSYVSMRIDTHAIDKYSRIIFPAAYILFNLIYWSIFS
T1 sequence (P62813 28-455): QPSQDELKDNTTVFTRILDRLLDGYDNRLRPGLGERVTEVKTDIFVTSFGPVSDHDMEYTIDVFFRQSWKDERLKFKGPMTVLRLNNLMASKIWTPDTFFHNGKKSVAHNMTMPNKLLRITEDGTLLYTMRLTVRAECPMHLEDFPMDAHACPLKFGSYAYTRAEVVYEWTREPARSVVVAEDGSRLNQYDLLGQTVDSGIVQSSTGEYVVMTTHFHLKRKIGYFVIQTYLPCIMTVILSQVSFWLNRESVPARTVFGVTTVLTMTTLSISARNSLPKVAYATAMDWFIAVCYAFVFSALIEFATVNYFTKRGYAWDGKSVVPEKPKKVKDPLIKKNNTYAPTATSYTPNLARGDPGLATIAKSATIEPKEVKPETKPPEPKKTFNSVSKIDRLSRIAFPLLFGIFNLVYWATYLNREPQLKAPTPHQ
T1 sequence (P63138 25-474 limits assumed): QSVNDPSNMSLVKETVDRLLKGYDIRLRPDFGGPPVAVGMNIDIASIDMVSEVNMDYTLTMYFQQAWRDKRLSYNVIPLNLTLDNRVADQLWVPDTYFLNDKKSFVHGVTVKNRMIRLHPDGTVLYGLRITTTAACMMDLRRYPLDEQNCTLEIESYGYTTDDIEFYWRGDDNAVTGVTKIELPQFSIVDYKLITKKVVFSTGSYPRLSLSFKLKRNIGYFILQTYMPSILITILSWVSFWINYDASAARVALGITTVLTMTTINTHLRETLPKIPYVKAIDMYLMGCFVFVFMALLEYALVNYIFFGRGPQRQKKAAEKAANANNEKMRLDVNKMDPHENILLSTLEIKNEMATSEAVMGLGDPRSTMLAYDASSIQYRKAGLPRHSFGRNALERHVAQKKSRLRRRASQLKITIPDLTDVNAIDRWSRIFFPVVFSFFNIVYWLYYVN
T1 sequence (P18507 40-467 isoform P18507-1 limits assumed): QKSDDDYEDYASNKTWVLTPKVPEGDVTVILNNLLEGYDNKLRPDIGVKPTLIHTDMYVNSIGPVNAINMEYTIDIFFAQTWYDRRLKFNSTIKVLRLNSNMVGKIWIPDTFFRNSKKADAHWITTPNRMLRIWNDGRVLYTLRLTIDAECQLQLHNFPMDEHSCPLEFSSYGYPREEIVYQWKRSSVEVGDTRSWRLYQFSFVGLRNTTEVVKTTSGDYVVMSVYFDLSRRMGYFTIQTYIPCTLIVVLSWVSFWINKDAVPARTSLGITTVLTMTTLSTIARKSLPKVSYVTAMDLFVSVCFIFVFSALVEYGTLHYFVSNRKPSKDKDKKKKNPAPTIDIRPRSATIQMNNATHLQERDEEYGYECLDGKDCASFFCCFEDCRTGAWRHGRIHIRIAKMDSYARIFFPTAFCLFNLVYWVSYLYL
T2 sequence (P62813 28-455): as the sequence (P62813 28-455) above
T2 sequence (P63138 25-474 limits assumed): as the sequence (P63138 25-474 limits assumed) above
T2 sequence (P18507 40-467 isoform P18507-1 A118C limits assumed): as the sequence (P18507 40-467 isoform P18507-1 limits assumed) above, with A79C counted along it

Take `CC(C)c1cc(CCCC(=O)NCc2ccc(/N=N/c3ccc(C(=O)NCCNC(=O)CCOCCOCCOCCOCCOCCOCCOCCOCCOCCOCCOCCOCCOCCOCCOCCOCCOCCOCCOCCOCCOCCOCCOCCOCCNC(=O)CCN4C(=O)C=CC4=O)cc3)cc2)cc(C(C)C)c1O` [MPC100, (E)-N-(82-(2,5-Dioxo-2,5-dihydro-1H-pyrrol-1-yl)-4,80-dioxo-7,10,13,16,19,22,25,28,31,34,37,40,43,46,49,52,55,58,61,64,67,70,73,76-tetracosaoxa-3,79-diazadooctacontyl)-4-((4-((4-(4-hydroxy-3,5-diisopropylphenyl)butanamido)methyl)phenyl)diazenyl)benzamide]: the “direct activation of wildtype receptors” value in assay [1] (10 μM, no GABA) was “negligible”. Further, the “potentiation of the GABA response” value in assay [1] is “smaller than that produced by equimolar trans-dominant MPC088”. The “response to GABA after MPC100 treatment and Ringer perfusion” value in assay [1] (wildtype receptors, 100 μM, 7 min) is “not significantly enhanced”. Besides, in assay [2] (100 μM MPC100, 10 min, after methyl-(PEG)11-maleimide pre-treatment), the “ratio of 3 μM GABA response amplitudes post- vs. pre-MPC100 treatment” value was 1.1±0.1. In assay [2] (100 μM, ~5-7 min, then Ringer superfusion), the “potentiation after incubation and washout” value was “persistent potentiation of the GABA response”. Also, in assay [2] (data not shown), the “effect of tethering on potentiating action of diazepam” value is “eliminated the potentiating action of diazepam”.

Take `CCCC(=O)NCc1ccc(/N=N/c2ccc(C(=O)NCCN)cc2)cc1` [MPD021, (E)-N-(2-Aminoethyl)-4-((4-(butyramidomethyl)phenyl)diazenyl)benzamide]: the “response amplitude relative to the 3 μM GABA response” value was determined as 1.03±0.07 in assay [1] (3 μM GABA + 10 μM compound) and 1.03±0.11 in assay [1] (3 μM GABA + 100 μM compound). Also, the “potentiation of the GABA response” value in assay [1] is “no potentiation of the GABA response”.

`CC(C)c1cc(CCCC(=O)O)cc(C(C)C)c1O` [compound 8]: the “electrophysiological activity of propofol analogs (FIG. 59), words” value (“electrophysiological activity” below) in assay [1] is given as “poor activity”.

Regarding `COC(=O)c1ccc(/N=N/c2ccc(CNC(=O)CCCc3cc(C(C)C)c(O)c(C(C)C)c3)cc2)cc1` [compound 9], in assay [1], the “electrophysiological activity” value is recorded as “poor activity”.

As to `CC(C)c1cc(CCCC(=O)Oc2ccc(/N=N/c3ccccc3)cc2)cc(C(C)C)c1O` [compound 14, (E)-4-(phenyldiazenyl) phenyl 4-(4-hydroxy-3,5-diisopropylphenyl) butanoate], the “electrophysiological activity” value in assay [1] was “active”.

With `CC(C)c1cc(CCCC(=O)NCc2ccc(/N=N/c3ccc(C(=O)O)cc3)cc2)cc(C(C)C)c1O` [compound 18, (E)-4-((4-((4-(4-hydroxy-3,5-diisopropylphenyl)butanamido)methyl)phenyl)diazenyl) benzoic acid], the “electrophysiological activity” value in assay [1] was “strong GABAAR potentiation”.

The term EC50 denotes the concentration giving half of the maximal effect. A high value points to a need for much substance. In the case of `NCc1cc(=O)[nH]o1` [muscimol, reference compound], in assay [3], the Hill coefficient n turned out to be 0.74 and a half-maximal response (EC50) required 4.8 µM. In assay [4], this compound registered a Hill coefficient n of 1.2 and an EC50 of 2 µM.

Consider `O=C(CCCC[C@@H]1SC[C@@H]2NC(=O)N[C@@H]21)NCCCCCC(=O)NCc1cc(O)no1` [muscimol-biotin], for which, in assay [3], the Hill coefficient n stood at 1.4 and it took 385 µM to reach a half-maximal effect (EC50). In assay [4], this compound displayed a Hill coefficient n of 4.4 and a half-maximal effective concentration (EC50) of 20 µM.

Consider “(E)-N-(2-Aminoethyl)-4-((4-((4-(4-hydroxy-3,5-diisopropylphenyl)butanamido)methyl)phenyl)diazenyl)benzamide [MPC088]”, for which, in assay [1], the “electrophysiological activity” value is “strong GABAAR potentiation”.

Consider “methyl-(PEG)11-maleimide [reference compound]”, for which the “persistent increase in the 3 μM GABA response” value in assay [2] (1 mM, 10-min treatment) is 71±25%.

For the compound picrotoxin [reference compound], in assay [5], the “reduction of the response to 2 μM GABA+10 μM trans-dominant MPC088” value is on record as 94±1% and the “reduction of the response to 60 μM trans-dominant MPC088 alone” value turned out to be 95±2%. Besides, the “effect of antagonist on the MPC088-elicited response” value in assay [1] (picrotoxin 100 μg, gabazine 30 μg, bicuculline 100 μM (so in the source)) is listed as “eliminated”. Besides, in assay [2] (PTX applied to cells treated with 100 μM MPC100 and washed), the “reduction of baseline current” value is listed as 85±7%.
